Measurements: patent US20020068351A1, “Human brain phosphodiesterase” (SmithKline Beecham Corporation, priority 1994, published 2002)
“Also recorded” adds a separate entry of the source. Blank lines part the entries; values can stand above or below the compound they belong to.

Tests used:
hPDE IVB = hPDE IVB (Homo sapiens, UniProt Q07343); experiment: PDE assay: cAMP hydrolysis by recombinant hPDE IVB in yeast lysate supernatant
Procedure: PDE Assays and Inhibitor Studies—PDE activity was determined in 100,000×g supernatant fractions of yeast cell lysates. […] For studies in which the IC50s of various inhibitors were determined, compounds were present in the reaction mixture at concentrations that varied over three orders of magnitude. Reactions were conducted at 30° C. for 30 min.
Appropriate corrections were made for the changes in specific activity of the substrate. […] Statistical comparisons between one-site and two-site fits were conducted via F test.

[1] = tested on: PDE-deficient mutant cells expressing the human PDE IV; experiment: Yeast growth arrest assay in PDE-deficient cells expressing human PDE IV
Procedure: (§1) For heat shock, cells are replicated from the master plate onto two plates each containing the same medium as describe above, one of which is preheated to 55° C. for 1 hour. Cells transferred to the preheated plate are incubated at 55° C. for 5 minutes and then shifted to 30° C. For monitoring growth on acetate, the master plate is replicated to a plate containing the same medium except 2% potassium acetate instead of glucose. Growth is scored after five days at 5 days at 30° C.

wild-type yeast cells = experiment: Yeast control: killing of wild-type cells
Procedure: as §1

hPDE IVB, sequence (Q07343 1-564 isoform Q07343-2): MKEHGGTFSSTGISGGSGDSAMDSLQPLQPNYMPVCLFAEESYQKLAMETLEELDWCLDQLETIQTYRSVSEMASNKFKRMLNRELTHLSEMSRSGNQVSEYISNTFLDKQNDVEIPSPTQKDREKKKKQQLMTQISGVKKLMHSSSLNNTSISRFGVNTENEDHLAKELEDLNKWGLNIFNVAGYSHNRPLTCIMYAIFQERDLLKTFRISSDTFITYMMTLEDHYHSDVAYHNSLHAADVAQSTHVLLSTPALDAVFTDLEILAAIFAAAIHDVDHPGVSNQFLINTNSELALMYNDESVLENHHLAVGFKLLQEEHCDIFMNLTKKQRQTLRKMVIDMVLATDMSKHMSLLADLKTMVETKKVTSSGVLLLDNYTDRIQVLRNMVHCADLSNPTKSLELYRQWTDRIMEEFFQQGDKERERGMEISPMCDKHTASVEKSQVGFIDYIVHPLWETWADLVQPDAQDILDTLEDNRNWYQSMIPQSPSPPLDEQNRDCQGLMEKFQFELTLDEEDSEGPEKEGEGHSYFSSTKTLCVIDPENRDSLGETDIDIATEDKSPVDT

Km (hPDE IVB; substrate of hPDE IVB): > 10 mM
Structure (SMILES): Nc1nc2c(ncn2[C@@H]2O[C@@H]3COP(=O)(O)O[C@H]3[C@H]2O)c(=O)[nH]1 [cGMP]
hydrolysis of cGMP as substrate (hPDE IVB; hPDE IVB, substrate concentrations as great as 10 mM): very poor activity; also recorded: No detectable hydrolysis

Structure (SMILES): COc1ccc(C2CNC(=O)C2)cc1OC1CCCC1 (stereo not drawn) [rolipram]
cytotoxicity ([1]; under growth arrest conditions): cytotoxic | killing effect ([1]; under normal growth conditions): no killing effect | killing effect (wild-type yeast cells): no killing effect

IC50 (hPDE IVB): > 30 µM
Structure (SMILES): CN/C(=N\c1ccc(C2=NNC(=O)CC2C)cc1)NC#N (stereo not drawn) [siquazodan, siguazodan]
